From US20250057959A1, “PHOSPHANE GOLD(I)-N-HETEROCYCLIC CARBENE COMPLEXES FOR TREATING CANCER” (KING FAHD UNIVERSITY OF PETROLEUM AND MINERALS, priority 2023, published 2025)
pIC50: −log10 of the molar value.

Assays:
[1] = tested on: adipose-derived stem cells (ADSCs); assay: Cell viability in normal adipose-derived stem cells; type: cell-based; details: 72 hours treatment, normal human cells
Excerpt: Human epithelial ovarian cancer A2780 cell line and its cisplatin-resistant clone A2780cis were obtained from Sigma-Aldrich (Milano, Italy). SKOV3 (HTB-77) cells were from the American Type Culture Collection (ATCC). The two cell lines were selected to reflect the two different stages of OvCa and different sensitivity to cisplatin. A2780 cell lines were derived from the ovarian tumor tissue of an untreated patient, while SKOV3 was from the ascitic fluids (after metastasis). Cells were authenticated in the laboratory using PowerPlex 16 HS system (Promega) and GeneMapper ID version 3.2.1 to identify DNA short tandem repeats. […]
4.0×10^3/mL A2780, A2780cis, and SKOV3 cells were seeded in 96-well microplates in 100 μL of culture medium. […] Cell viability was evaluated using 3-(4,5-dimethylthiazol-2-yl)-2,5-diphenyltetrazolium bromide (MTT) assay (Sigma-Aldrich) after 72 hours of treatment. Half maximal inhibitory concentrations (IC50) were calculated using the CalcuSyn software version 2 (Biosoft, Ferguson, MO, USA). Fold resistance was calculated as the ratio of the IC50 of the A2780cis to that of the parental cell line A2780.

A2780 and A2780cis cells = assay: DNA double-strand breaks, γ-H2AX western blot; type: cell-based, human
Method: Whole-cell lysates were prepared using cold RIPA buffer [150 mM NaCl, 50 mM Tris-HCl (pH 8), 0.1% SDS, 1% Igepal, and 0.5% desoxycholate sodium] containing a protease inhibitor cocktail (Roche Diagnostics S.p.a., Milan, Italy), phosphatase inhibitors 1 mM Na3VO4 and 1 mM NaF (Sigma-Aldrich). Protein concentrations were determined using the BioRad protein assay (Bio-Rad Laboratories, Inc., CA, USA). Equal amounts of proteins were mixed with Laemmli buffer, separated in 4-20% SDS-PAGE (Criterion Precast Gel, BioRad), and blotted onto a nitrocellulose membrane (Amersham, GE Healthcare). Membrane strips were blocked with EveryBilot blocking buffer (Bio-Rad) and incubated at 4° C. overnight with primary antibodies probed with the appropriate antibodies (Table 2) and developed using Immobilon Western chemioluminescent HRP substrate. Images were acquired using a ChemiDoc XRS system (Bio-Rad).

[2] = tested on: A2780, A2780cis, and SKOV3 cells; assay: Cell cycle analysis (PI, flow cytometry), three OvCa lines; type: cell-based, human; details: 24 hours, 0.15 μM and 0.5 μM
Method: 2.0×10^5/mL A2780 and A2780cis cells were seeded in 6-well plates in complete medium and treated with complex 6 (0.15 μM and 0.5 μM). Results were detected by flow cytometry on a BD FACSCanto II flow cytometer. Data were analyzed using BD FACSDiva version 8.0.1 software (BD Biosciences) unless otherwise indicated. To evaluate apoptosis, tumor cells were treated for 48 hours and then stained for 15 minutes with FITC annexin-V (Thermo Fisher Scientific) and 7AAD (BD Pharmingen). […] For B-cell lymphoma/leukemia-2 (Bcl-2) and Bcl-2 associated x protein (Bax) evaluation, cells were fixed and permeabilized using FIX & PERM cell fixation and cell permeabilization kit (Life Technologies). For ROS generation, cells were stained with 5 μM MitoSOX red mitochondrial superoxide indicator (ThermoFisher Scientific) in a working solution for 30 minutes at 37° C. Cell cycle analysis was performed after 24 hours treatment with complex 6. Cells were harvested, fixed in cold 70% ethanol for 15 minutes, and stained with propidium iodide (PI) solution ([…] PI, 0.1% NP-40, 100 µg/mL PureLink RNase A, 0.1% sodium citrate) for 1 hour. The distribution of cells in different cell cycle phases was quantified using ModFit LT 4.0 software (Verity Software House, Topsham, ME, USA).

SKOV3 cells = assay: In vitro wound healing assay (cell migration); type: cell-based, human
Method: Cell migration was assessed using the in vitro wound healing assay. Briefly, cells were grown to confluence and then treated with complex 6. After 24 hours of treatment, the medium was removed and cells were washed then scraped with a pipet tip to create a “wound” in the monolayer and washed again. Fresh medium containing 2% FCS was added. Wounds were photographed at times 0, 24, and 48 hours using an inverted microscope (EclipseTS/100, Nikon, Instruments Europe BV Amsterdam, The Netherlands) at magnification 4. Migration was assessed by measuring the cell-free area (in pixels) with ImageJ-NIH (National Institutes of Health) tool software. The cytoskeleton organization was evaluated by culturing SKOV3 cells onto glass coverslips and performing immunofluorescence staining for α-tubulin and F-actin. SKOV3 cells were treated for 24 hours with complex 6, fixed in 4% paraformaldehyde, permeabilized with 0.5% Triton X-100, and incubated overnight with primary antibody (Table 1) at 4° C. Primary antibody was detected using the appropriate secondary antibody together with phallotoxins (Molecular Probes) and TO-PRO-3 (Thermo Fisher Scientific). Images were acquired using an SP8 confocal microscope (Leica).

[3] = tested on: tumor xenografts derived from SKOV3 cells; assay: SKOV3 xenograft tumor growth in athymic nude mice; type: in vivo; details: two injections/week
Method: (§1) Animal experimentation was reviewed and approved by Centro di Riferimento Oncologico di Aviano (CRO) Institutional Organism for Animal Wellbeing (OPBA) and approved by the Italian Ministry of Health (No. 671/2015/PR). All animal experiments were conducted in adherence to the international and institutional committees' ethical guidelines. Ten 4-week-old female athymic nude NU(NCr)-Foxn1^nu mice were purchased from Charles Rivers (Lecco, Italy). SKOV3 (10×10^6 cells/animal) were suspended in BD Matrigel basement membrane matrix (BD Biosciences) (diluted 1:3 in PBS) and inoculated into the animals' right flank. When tumors were palpable, animals were divided into two groups of five mice each, and treated with intratumoral injection of complex 6 (2 mg/kg) or vehicle (10% DMSO, 20% Cremophor Sigma-Aldrich, 70% PBS) two times a week. Body weight and tumors were examined regularly. Tumor size was measured using a digital caliper, and volumes were calculated according to the formula (width^2×length×3.14)/6.

[4] = Body weight and physical inspection of xenografted mice; type: in vivo; details: 2 mg/kg intratumoral, two injections/week
Method: as §1

CC(C)c1cccc(C(C)C)c1-n1ccn(-c2c(C(C)C)cccc2C(C)C)[c]1=[Au+][PH](C1CCCCC1)(C1CCCCC1)C1CCCCC1.F[P-](F)(F)(F)(F)F [Complex 6, [Au(IPr)(C18H33P)] PF6]
pIC50 [1]: 5.60
DNA double-strand breaks (γH2AX) (A2780 and A2780cis cells): induced DNA-DSBs
Effect on cell cycle phases [2]: induced an accumulation in the G0/G1 phase of the cell cycle and a decrease in the S phases
SKOV3 migration (SKOV3 cells; 24 hours treatment): decreased the SKOV3 migration
Remaining uncovered area (wound) (SKOV3 cells; 48 hours after scratch, highest concentration, control about 5%): ~70%
Reduction of tumor volume with respect to vehicle-treated mice ([3]; 2 mg/kg intratumoral): more than 80%
Tumor mass weight ([3]; 2 mg/kg intratumoral): reduced
Mean tumor volume ([3]; day 35, 2 mg/kg intratumoral, control 869.5±61.9): 155.8±84.5 mm^3
Physical inspection and body weight [4]: normal to physical inspection with a comparable weight with respect to untreated mice
